Earlier results as cited in patent publication US11446297B2, “Methods for treating hemolytic diseases and sickle cell disease” (Purdue Research, priority 2015, dated 2022).

Biological target: Syk (Homo sapiens, UniProt P43405)
Conditions: first IC column; kinase assay; Inactive@ 80 μM (r14)

## COc1ccc2c(c1)c(/C=C1\C(=O)Nc3ccc(S(=O)(=O)N(C)C)cc31)cn2C [Compd 6]
  IC@ (result in words): Inactive@
